Target: T1, Cholesteryl ester transfer protein (Homo sapiens, UniProt P11597)
T1 sequence (P11597 whole entry): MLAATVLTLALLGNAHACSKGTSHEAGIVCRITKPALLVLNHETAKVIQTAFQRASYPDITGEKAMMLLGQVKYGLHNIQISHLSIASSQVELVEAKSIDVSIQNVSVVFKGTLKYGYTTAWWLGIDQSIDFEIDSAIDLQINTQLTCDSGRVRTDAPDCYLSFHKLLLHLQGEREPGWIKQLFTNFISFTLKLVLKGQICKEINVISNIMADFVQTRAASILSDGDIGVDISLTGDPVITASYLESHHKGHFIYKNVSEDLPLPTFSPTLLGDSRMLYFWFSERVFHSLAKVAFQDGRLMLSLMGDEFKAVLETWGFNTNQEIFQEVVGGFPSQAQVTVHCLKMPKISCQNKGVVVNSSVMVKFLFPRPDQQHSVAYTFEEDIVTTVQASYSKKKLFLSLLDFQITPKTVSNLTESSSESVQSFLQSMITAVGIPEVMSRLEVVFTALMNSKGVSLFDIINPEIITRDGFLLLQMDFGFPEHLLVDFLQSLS
Experiment: Inhibition of recombinant human CETP-mediated transfer of [3H]CE from HDL to LDL

SMILES | IC50 [µM]
OC(CN(Cc1ccc(OC(F)(F)F)cc1)c1cccc(Oc2ccccc2)c1)C(F)(F)F (stereo not drawn) | 4
Cc1cccc(CN(CC(O)C(F)(F)F)c2cccc(F)c2)c1 (stereo not drawn) | > 100
OC(CN(Cc1cccc(C(F)(F)F)c1)c1ccccc1)C(F)(F)F (stereo not drawn) | 15
OC(CN(Cc1ccccc1C(F)(F)F)c1cccc(F)c1)C(F)(F)F (stereo not drawn) | > 100
OC(CN(Cc1cccc(C(F)(F)F)c1)c1cccc(F)c1)C(F)(F)F (stereo not drawn) | 40
COc1cc(N(Cc2cccc(SC(F)(F)F)c2)C[C@@H](O)C(F)(F)F)cc(OC)c1OC | 5
OC(CN(Cc1ccccc1)c1cccc(F)c1)C(F)(F)F (stereo not drawn) | > 100

Target: T1, Cholesteryl ester transfer protein
Experiment: Tested for inhibiting CETP-mediated transfer of [3H]-CE from HDL to LDL in vitro under buffered assay conditions in human serum.
Assay type: cell-free

SMILES | IC50 [µM]
OC(CN(Cc1cccc(C(F)(F)F)c1)c1cccc(F)c1)C(F)(F)F (stereo not drawn) | > 200

Source: ChEMBL document CHEMBL1133595, “Discovery of chiral N,N-disubstituted trifluoro-3-amino-2-propanols as potent inhibitors of cholesteryl ester transfer protein” (J Med Chem, 2000)
